Values of other authors in patent US20110008426A1, “MODIFIED RELEASE PHARMACEUTICAL COMPOSITIONS COMPRISING MYCOPHENOLATE AND PROCESSES THEREOF” (priority 2008, published 2011).
Where “and” joins values, the source holds several entries; their conditions need not be identical. Equal entries are not always repeated. Where two headings read alike, the source gives them in different places.

What was measured:
[1] = 423 de novo kidney allograft recipients
[2] = not given; remark: listed apart in the source
[3] = MMF 1 g b.i.d; EC-MPS 720 mg b.i.d
[4] = not given; remark: listed apart in the source
[5] = transplant patients, acute rejection
[6] = controlled de novo and maintenance renal studies, patients

Compound	incidence of GI adverse events [1] [%]	Adverse Events: Anemia [6] [%]	Adverse Events: Constipation [6] [%]	Adverse Events: Diarrhoea [6] [%]	Adverse Events: Dyspepsia [6] [%]	Adverse Events: Insomnia [6] [%]	Adverse Events: Leukopenia [6] [%]	Adverse Events: Nausea [6] [%]	Adverse Events: Urinary Tract Infection [6] [%]	Adverse Events: Vomiting [6] [%]	adverse effects: blood and lymphatic system disorders ([2]; www.rxlist.com) [%]	adverse effects: constipation ([2]; www.rxlist.com) [%]	adverse effects: diarrhea ([2]; www.rxlist.com) [%]	adverse effects: nausea ([2]; www.rxlist.com) [%]	adverse effects: urinary tract infections ([2]; www.rxlist.com) [%]	adverse effects: vomiting ([2]; www.rxlist.com) [%]	Cmax of MPA [3] [ng/mL]	further results
COc1c(C)c2c(c(O)c1C/C=C(\C)CCC(=O)OCCN1CCOCC1)C(=O)OC2 [MMF, mycophenolate mofetil]	77.1	21.6	38.0	24.8	22.5	23.5	19.2	29.1	29.1	20	42.4	39.5	24.8	27.1	33.3	20	21300	Adverse Events: CMV infections [6]: 20.2%; adverse effects: CMV infection ([2]; www.rxlist.com): 18.1%
COc1c(C)c2c(c(O)c1C/C=C(\C)CCC(=O)O)C(=O)OC2 [MPS, mycophenolate sodium]	79.8	21.9	39.5	23.5	19	23.8	20.5	27.1	33.3	23	41.8	38	23.5	29	29.1	23	18930	Adverse Events: CMV infections (in vivo): 18.1%; solubility of the drug ([4]; pH above 6.0): high solubility; solubility of the drug ([4]; pH below 6.0): poor solubility; adverse effects: CMV infection ([2]; in vivo): 20.2%
COc1c(C)c2c(c(O)c1C/C=C(\C)CCC(=O)O)C(=O)OC2 [mycophenolic acid, Mycophenolic acid]	–	–	–	–	–	–	–	–	–	–	–	–	–	–	–	–	–	mycophenolic acid AUC expected to yield 50% of maximal achievable efficacy [5]: 15 µg·h/mL; mycophenolic acid AUC that would yield 90% efficacy [5]: 25 µg·h/mL and 40 µg·h/mL
